From US9199941B2, “Pyrazole indanyl carboxamides” (BAYER CROPSCIENCE AG, priority 2012, dated 2015)

How the values were obtained:
[1] = log P by HPLC on reversed phase columns (EEC directive 79/831 Annex V.A8); assay type: physicochemical; conditions: Table 1, compounds of formula (I); method [a]: LC-MS at pH 2.7, 0.1% formic acid in water / acetonitrile
[2] = test system: Botrytis cinerea; assay: In vivo preventive test on Botrytis cinerea (grey mould), gherkin; conditions: preventive spray, gherkin plants, grading 4 to 5 days after contamination
Description: Gherkin plants (“Vert petit de Paris” variety), sown in starter cups on a 50/50 peat soil-pozzolana substrate and grown at 24° C., are treated at the Z11 cotyledon stage by spraying with the active ingredient prepared as described above. Plants, used as controls, are treated with the mixture of acetone/tween/DMSO/water not containing the active material. After 24 hours, the plants are contaminated by spraying the cotyledons with an aqueous suspension of cryopreserved Botrytis cinerea spores (50 000 spores per ml). The spores are suspended in a nutrient solution composed of 10 g/L of PDB, 50 g/L of D-Fructose, 2 g/L of NH4NO3 and 1 g/L of KH2PO4. The contaminated gherkin plants are incubated at 17° C. and at 90% relative humidity. Grading (% of efficacy) is carried out 4 to 5 days after the contamination, in comparison with the control plants.

[3] = test system: Puccinia recondita; assay: In vivo preventive test on Puccinia recondita (brown rust on wheat); conditions: preventive spray, wheat plants, grading 12 days after contamination
Description: Plants, used as controls, are treated with the mixture of acetone/tween/DMSO/water not containing the active material. After 24 hours, the plants are contaminated by spraying the leaves with an aqueous suspension of Puccinia […] spores (100 000 spores per ml). […] Grading (% of efficacy) is carried out 12 days after the contamination, in comparison with the control plants.

[4] = test system: Sphaerotheca fuliginea; assay: In vivo preventive test on Sphaerotheca fuliginea (powdery mildew on cucurbits); conditions: preventive spray, gherkin plants, grading 12 days after contamination
Description: Gherkin plants (“Vert petit de Paris” variety), sown in starter cups on a 50/50 peat soil-pozzolana substrate and grown at 24° C., are treated at the Z11 cotyledon stage by spraying with the active ingredient prepared as described above. Plants, used as controls, are treated with the mixture of acetone/tween/DMSO/water not containing the active material. After 24 hours, the plants are contaminated by spraying the cotyledons with an aqueous suspension of Sphaerotheca fuliginea spores (100 000 spores per ml). The spores are collected from infected plants. The contaminated gherkin plants are incubated at about 20° C. and at 70-80% relative humidity. Grading (% of efficacy) is carried out 12 days after the contamination, in comparison with the control plants.

[5] = test system: Uromyces appendiculatus; assay: In vivo preventive test on Uromyces appendiculatus (bean rust); conditions: preventive spray, bean plants, grading 11 days after contamination
Description: Bean plants (“Saxa” variety), sown in starter cups on a 50/50 peat soil-pozzolana substrate and grown at 24° C., are treated at the 2-leaf stage (9 cm height) by spraying with the active ingredient prepared as described above. Plants, used as controls, are treated with the mixture of acetone/tween/DMSO/water not containing the active material. After 24 hours, the plants are contaminated by spraying the leaves with an aqueous suspension of Uromyces appendiculatus spores (150 000 spores per ml). […] Grading (% of efficacy) is carried out 11 days after the contamination, in comparison with the control plants.

[6] = test system: Alternaria brassicae; assay: In vivo preventive test on Alternaria brassicae (leaf spot on radish); conditions: 500 ppm, preventive spray, radish plants, grading 6 days after contamination
Description: Radish plants (“Pernod Clair” variety), sown in starter cups on a 50/50 peat soil-pozzolana substrate and grown at 17° C., are treated at the cotyledon stage by spraying with the active ingredient prepared as described above. Plants, used as controls, are treated with the mixture of acetone/tween/DMSO/water not containing the active material. After 24 hours, the plants are contaminated by spraying the cotyledons with an aqueous suspension of Alternaria brassicae spores (50 000 spores per ml). The spores are collected from a 15-day-old culture. […] Grading (% of efficacy) is carried out 6 days after the contamination, in comparison with the control plants.

[7] = test system: Phytophthora infestans; assay type: in vivo; conditions: 500 ppm, preventive spray, tomato plants, grading 5 days after contamination
[8] = test system: Pyrenophora teres; assay: In vivo preventive test on Pyrenophora teres (net blotch on barley); conditions: 500 ppm, preventive spray, barley plants, incubated 48 hours then 12 days
Description: Barley plants (“Plaisant” variety), sown in starter cups on a 50/50 peat soil-pozzolana substrate and grown at 22° C., are treated at the 1-leaf stage (10 cm height) by spraying with the active ingredient prepared as described above. Plants, used as controls, are treated with the mixture of acetone/tween/DMSO/water not containing the active material. After 24 hours, the plants are contaminated by spraying the leaves with an aqueous suspension of Pyrenophora teres spores (12 000 spores per ml). The spores are collected from a 12-day-old culture.

[9] = test system: Septoria tritici; assay: In vivo preventive test on Septoria tritici (leaf spot on wheat); conditions: 500 ppm, preventive spray, wheat plants, grading 24 days after contamination
Description: Wheat plants (“Scipion” variety), sown in starter cups on a 50/50 peat soil-pozzolana substrate and grown at 22° C., are treated at the 1-leaf stage (10 cm height) by spraying with the active ingredient prepared as described above. Plants, used as controls, are treated with the mixture of acetone/tween/DMSO/water not containing the active material. After 24 hours, the plants are contaminated by spraying the leaves with an aqueous suspension of cryopreserved Septoria tritici spores (500 000 spores per ml). […] Grading (% of efficacy) is carried out 24 days after the contamination, in comparison with the control plants.

[10] = test system: Phakopsora pachyrhizi; assay: In vivo Phakopsora test (soybeans) / preventive; conditions: 10 ppm of active ingredient, evaluated 7 days after the inoculation
Description: (§1) [table] To produce a suitable preparation of active compound, 1 part by weight of active compound is mixed with the stated amounts of solvent and emulsifier, and the concentrate is diluted with water to the desired concentration. To test for preventive activity, young plants are sprayed with the preparation of active compound at the stated rate of application. […] The plants remain in the incubation cabinet at approximately 24° C. and a relative atmospheric humidity of approximately 80% and a day/night interval of 12 h.

[11] = test system: Venturia inaequalis; assay: In vivo Venturia test (apples) / preventive; conditions: 100 ppm of active ingredient, evaluated 10 days after the inoculation
Description: as §1, with “are then placed” for “remain”, “a greenhouse” for “the incubation cabinet”, “21°” for “24°”, “90%.” for “80% and a day/night interval of 12 h.”

[12] = test system: Blumeria graminis fsp. hordei; assay: In vivo Blumeria test (barley) / preventive; conditions: 500 ppm of active ingredient, evaluated 7 days after the inoculation
Description: [table] To produce a suitable preparation of active compound, 1 part by weight of active compound or active compound combination is mixed with the stated amounts of solvent and emulsifier, and the concentrate is diluted with water to the desired concentration. To test for preventive activity, young plants are sprayed with the preparation of active compound or active compound combination at the stated rate of application. After the spray coating has been dried, the plants are dusted with spores of Blumeria graminis fsp. hordei. The plants are placed in the greenhouse at a temperature of approximately 18° C. and a relative atmospheric humidity of approximately 80% to promote the development of mildew pustules.

[13] = test system: Fusarium nivale (var. majus); assay: In vivo Fusarium nivale (var. majus) test (wheat) / preventive; conditions: 500 ppm of active ingredient, evaluated 5 days after the inoculation
Description: [table] To produce a suitable preparation of active compound, 1 part by weight of active compound or active compound combination is mixed with the stated amounts of solvent and emulsifier, and the concentrate is diluted with water to the desired concentration. To test for preventive activity, young plants are sprayed with the preparation of active compound or active compound combination at the stated rate of application. After the spray coating has been dried, the plants are slightly injured by using a sandblast and afterwards they are sprayed with a conidia suspension of Fusarium nivale (var. majus).

[14] = test system: Pyricularia oryzae; assay type: in vivo; conditions: 500 ppm, preventive spray, rice plants, grading 6 days after contamination

CC1CC2(CCCCC2)c2cccc(NC(=O)c3cn(C)nc3C(F)F)c21 (centres unmarked) [Example 46]
logP [1]: 4.2[a]
Eff. % ([2]; 100 ppm): 75%
Eff. % ([3]; 100 ppm): 100%
Eff. % ([4]; 100 ppm): 100%
Eff. % ([5]; 100 ppm): 100%

CC1CC(C)c2c(NC(=O)c3cn(C)nc3C(F)F)cccc21 (centres unmarked) [Example 7]
logP [1]: 3.04[a]
Eff. % [6]: 100%
Eff. % ([2]; 500 ppm): 100%
Eff. % [7]: 99%
Eff. % [8]: 92%
Eff. % ([3]; 500 ppm): 100%
Eff. % [9]: 93%
Eff. % ([4]; 500 ppm): 100%
Eff. % ([5]; 500 ppm): 100%
Eff. % [10]: 100%
Eff. % [11]: 100%
Eff. % [12]: 94%
Eff. % [13]: 100%

CC1CC2(CC2)c2cccc(NC(=O)c3cn(C)nc3I)c21 (centres unmarked) [Example 52]
logP [1]: 3.24[a]
Eff. % ([2]; 100 ppm): 87%
Eff. % ([3]; 100 ppm): 90%
Eff. % ([4]; 100 ppm): 88%
Eff. % ([5]; 100 ppm): 100%

CC(C)CC1CC(C)c2c(NC(=S)c3cn(C)nc3C(F)F)cccc21 (centres unmarked) [Example 44]
Eff. % [6]: 95%
Eff. % ([2]; 500 ppm): 73%
Eff. % ([3]; 500 ppm): 100%
Eff. % [9]: 88%
Eff. % ([4]; 500 ppm): 100%
Eff. % ([5]; 500 ppm): 100%

CC1CC2(CCCCC2)c2cccc(NC(=S)c3cn(C)nc3C(F)F)c21 (centres unmarked) [Example 53]
logP [1]: 4.67[a]
Eff. % ([2]; 100 ppm): 82%
Eff. % ([3]; 100 ppm): 100%
Eff. % ([4]; 100 ppm): 100%
Eff. % ([5]; 100 ppm): 100%

CC1CC(C)c2c(NC(=O)c3cn(C)nc3C(F)F)cccc21 (centres unmarked) [Example 8]
logP [1]: 3.21[a]
Eff. % ([2]; 500 ppm): 100%
Eff. % [8]: 88%
Eff. % ([3]; 500 ppm): 100%
Eff. % [9]: 91%
Eff. % ([4]; 500 ppm): 95%
Eff. % ([5]; 500 ppm): 100%

CC1CC(C(C)C)c2cccc(NC(=O)c3cn(C)nc3C(F)F)c21 (centres unmarked) [Example 1]
logP [1]: 3.74[a]
Eff. % [8]: 81%
Eff. % [14]: 93%
Eff. % ([3]; 500 ppm): 100%
Eff. % ([4]; 500 ppm): 100%
Eff. % ([5]; 500 ppm): 100%
Eff. % [10]: 100%
Eff. % [12]: 80%
Eff. % [13]: 86%

CC1CC2(CC2)c2cccc(NC(=O)c3cn(C)nc3C(F)F)c21 (centres unmarked) [Example 25]
logP [1]: 3.13[a]
Eff. % [6]: 93%
Eff. % ([2]; 500 ppm): 88%
Eff. % [8]: 96%
Eff. % ([3]; 500 ppm): 100%
Eff. % [9]: 92%
Eff. % ([4]; 500 ppm): 100%
Eff. % ([5]; 500 ppm): 99%
Eff. % [10]: 94%
